In US20210348164A1, “ENDOGENOUS CYTOPLASMIC ALU COMPLEMENTARY DNA IN AGE-RELATED MACULAR DEGENERATION” (University of Virginia Patent Foundation, priority 2018, published 2021):
Entries after “also recorded” stand apart in the source; their conditions may differ.

Tests used:
[1] = tested on: Alu cDNA in primary human RPE cells; test: Alu cDNA in primary human RPE cells (Alu c-PCR, real-time PCR, in situ hybridization, equator blotting); type: cell-based; details: primary human RPE cells; cytoplasmic fraction; Alu c-PCR
Description: Cell culture and transfection. Primary mouse and human RPE cells were isolated as previously described (Kerur et al., 2018). All cells were maintained at 37° C. in a 5% CO2 environment. Mouse RPE cells were cultured in DMEM supplemented with 20% FBS and penicillin/streptomycin antibiotics at standard concentrations; primary human RPE cells were maintained in DMEM supplemented with 10% FBS and antibiotics. The human RPE cell line ARPE19 was cultured as previously described (Kerur et al., 2018) and maintained in DMEM-F12 containing penicillin/streptomycin, Fungizone, and gentamicin. HEK293T cells were cultured in DMEM with 10% fetal bovine serum (FBS) with 100 U/ml penicillin/streptomycin and 2 mM L-glutamine. Primary wild-type mouse bone marrow-derived macrophages (BMDMs) were isolated, and cultured in Iscove's Modified Dulbecco's Medium (IMDM) supplemented with 30% L929 supernatant containing macrophage-stimulating factor, nonessential amino acids, sodium pyruvate, 10% FBS and antibiotics, 50 μM β-mercaptoethanol (Seo et al., 2015), and serum starved in IMDM with 1% FBS and 100 U/ml penicillin/streptomycin overnight prior to LPS stimulation. NRTIs or NNRTIs were added 30 minutes prior to LPS stimulation and again 30 minutes prior to ATP activation. LPS (100 ng/mL) was added for 3-4 hours prior to the addition of ATP. Cell lysates were collected 30 minutes after addition of ATP (5 mM). Primary human subcutaneous pre-adipocytes (Catalogue No. PCS-210-010, ATCC, Manassas, Va., United States of America) and primary human dermal fibroblasts (Catalogue No. PCS-201-012, ATCC) were grown in fibroblast basal medium with fibroblast growth kit for low serum (ATCC).
Umbilical artery vascular smooth muscle cells (Catalogue No. CC-2579, Lonza, Morristown, N.J., United States of America) were grown in SMGM™-2 Smooth Muscle Growth Medium-2 BULLETKIT™ (Lonza). Primary human skeletal myoblasts (Catalogue No. A11440, Thermo Fisher Scientific) were grown in DMEM with 2% horse serum. Primary human epidermal keratinocytes (Catalogue NO. CO215C, Thermo Fisher Scientific) were grown in EPILIFE® Medium (Thermo Fisher Scientific). Human umbilical vein endothelial cells (HUVEC) were grown in HUVEC EGM™-2 Media (Lonza). Primary human peripheral blood mononuclear cells (Catalogue NO. PCS-800-011, ATCC) were directly used without culture for experiments. RPMI 1640 medium with 10% human serum with human GM-CSF (Miltenyi Biotec Inc., Auburn, Calif., United States of America) was used as media during the experiment. Transfections were performed according to the manufacturer's instructions (LIPOFECTAMINE® 2000, Invitrogen). For transfection of primary human peripheral blood mononuclear cells, HiPerFect Transfection Reagent (Qiagen) was used as previously described (Troegeler et al., 2014). NRTIs were administered 60 minutes before transfection and added again upon replacement of media at 8 hours. To induce acid injury or osmotic stress, primary human RPE cells were treated with HCl (pH 4.0 media) or H2O for 30 minutes, 1 hour, and 2 hours at 37° C. in 5% CO2, respectively. NIH3T3 Tet-ON cells were cultured in DMEM with 10% tetracycline-free fetal bovine serum (FBS) with 100 U/ml penicillin/streptomycin. NIH3T3 Tet-ON cells were transfected with pLD401 (see Taylor et al., 2013; gift of J. D. Boeke, Institute for Systems Genetics, NYU Langone Health, New York, New York, United States of America) and human L1 ORF1p abundance was monitored after 24 hours of doxycycline induction. […]

[2] = tested on: Alu cDNA in ARPE-19 cells; test: Alu cDNA in ARPE-19 cells (Alu c-PCR, in situ hybridization); type: cell-based, human; details: Alu c-PCR
Description: Cell culture and transfection. Primary mouse and human RPE cells were isolated as previously described (Kerur et al., 2018). All cells were maintained at 37° C. in a 5% CO2 environment. Mouse RPE cells were cultured in DMEM supplemented with 20% FBS and penicillin/streptomycin antibiotics at standard concentrations; primary human RPE cells were maintained in DMEM supplemented with 10% FBS and antibiotics. The human RPE cell line ARPE19 was cultured as previously described (Kerur et al., 2018) and maintained in DMEM-F12 containing penicillin/streptomycin, Fungizone, and gentamicin. HEK293T cells were cultured in DMEM with 10% fetal bovine serum (FBS) with 100 U/ml penicillin/streptomycin and 2 mM L-glutamine. […]
In situ hybridization. […] Visualization of fluorescein-labelled probe was performed with the TSA™ plus fluorescence system or the TSA™ plus Cy5 system (PerkinElmer). The fluorescent or Cy5 signals were detected using a Leica SP-5 or MR Nikon confocal microscope system. […]

[3] = tested on: reverse transcriptase activity of cytoplasmic fractions of F9 cells; test: In vitro reverse transcriptase activity of cytoplasmic fractions (Alu RNA-templated, Alu-specific qPCR); type: biochemical, mouse
Description: In vitro reverse transcriptase (RT) activity. In vitro reverse transcriptase (RT) activity in nuclear and cytoplasmic protein fractions was assessed using an Alu RNA-templated reaction. The RT reaction was carried out in a 20 μl reaction mix containing Alu RNA template (10 ng); Alu primer ([…]); dNTPs mix; cytoplasmic or nuclear protein, and Quantiscript RT Buffer (Qiagen). The reaction mixture was incubated at 42° C. for 30 minutes. The resulting cDNA was quantified by qPCR using Alu RNA template-specific primers. The reaction to evaluate self-priming activity of Alu RNA was carried out in the absence of priming oligos in a 20 μl reaction mix containing: Alu RNA with 3′-U tail; dNTP mix; cytoplasmic protein from mouse RPE cells; and Quantiscript RT Buffer (Qiagen) as described above. The resulting cDNA product was quantified by qPCR using Alu RNA template-specific primers. Alu RNA tailed on the 3′ end with chain terminator dideoxy thymidine base (ddTTP) was generated using TdT (New England Biolabs (NEB)) according to the manufacturer's instructions. Alu RNA tailed on the 3′ end with chain terminator cordycepin tri-phosphate was generated using PAP (NEB) according to the manufacturer's instructions.

[4] = tested on: reverse transcriptase; details: Fowler et al., 2014; Ambati et al., 2018; cited from earlier work

Compound | Endogenous Alu cDNA abundance [1] | Endogenous Alu cDNA abundance [2] | Alu cDNA formation from Alu RNA (reverse transcriptase activity) [3] | inhibition of reverse transcriptase [4]
Cc1cn([C@H]2C=C[C@@H](CO)O2)c(=O)[nH]c1=O [d4T, 2′,3′-didehydro-2′,3′-dideoxythymidine] | dramatically decreased Alu cDNA levels; also recorded: reduced | reduced |  | 
azidothymidine triphosphate [AZT-TP] |  |  | reduced Alu cDNA synthesis; also recorded: reduced Alu cDNA formation | inhibits reverse transcription
